Measured values as given in US11998515B1, “Enhancement of curcumin plasma levels using eucalyptol co-administration” (KING FAISAL UNIVERSITY, priority 2023, dated 2024).

Assay: Curcumin concentration in blood of rats after ten days of once-daily oral dosing, determined by HPLC/DAD
Assay type: in vivo
Method: This experiment involved the use of 6 groups of rats (n=6):
Group 1: is the control group, where the animals received a solution of 0.5% carboxy methyl cellulose (CMC) in normal saline (formulation vehicle) once daily orally for ten days.
Group 2: Rats were given Eucalyptol (20 mg/kg) solubilized in 0.5% carboxy methyl cellulose (CMC) in normal saline once a day orally for ten days.
Group 3: Rats were administered curcumin (10 mg/kg) solubilized in 0.5% carboxy methyl cellulose (CMC) in normal saline once daily orally for ten days.
Groups 4, 5 and 6: Rats were given combinations of curcumin (10 mg/kg) with Eucalyptol (5 mg/kg, group 4), (10 mg/kg group 5), and (20 mg/kg, group 6), solubilized in 0.5% carboxy methyl cellulose (CMC) in normal saline orally once daily for ten days.
After the last dose on day 10, blood samples were withdrawn from animals after 0.5, 1, 2, 4, 6, 12 and 24 hours, and HPLC/DAD techniques determined the concentrations of curcumin.

For `COc1cc(/C=C/C(=O)CC(=O)/C=C/c2ccc(O)c(OC)c2)ccc1O` [curcumin], the “time after administration at which curcumin concentration increased in serum” value (after last dose on day 10, curcumin 10 mg/kg alone) was 1 h and the “time after administration at which curcumin concentration reached the maximum concentration in serum” value (after last dose on day 10, curcumin 10 mg/kg alone (group 3)) was 6 h.
